According to patent publication US12427209B2, “Dual mode 18F-labelled theranostic compounds and uses thereof” (Provincial Health Services Authority, priority 2018, dated 2025):

Key:
[1] = highly dilute conditions (~5 mM), pH 7.5, in vitro (ref. 19); cited from earlier work
[2] = molecular target: T1, VLA-4 expressing B16-F10 cells (Mus musculus, UniProt P09055+Q00651); experiment: In vitro saturation binding assay on B16-F10 cells
T1 construct: endogenous in cells; host or cells: B16-F10 murine melanoma cells
T1 sequence (Q00651 41-1039): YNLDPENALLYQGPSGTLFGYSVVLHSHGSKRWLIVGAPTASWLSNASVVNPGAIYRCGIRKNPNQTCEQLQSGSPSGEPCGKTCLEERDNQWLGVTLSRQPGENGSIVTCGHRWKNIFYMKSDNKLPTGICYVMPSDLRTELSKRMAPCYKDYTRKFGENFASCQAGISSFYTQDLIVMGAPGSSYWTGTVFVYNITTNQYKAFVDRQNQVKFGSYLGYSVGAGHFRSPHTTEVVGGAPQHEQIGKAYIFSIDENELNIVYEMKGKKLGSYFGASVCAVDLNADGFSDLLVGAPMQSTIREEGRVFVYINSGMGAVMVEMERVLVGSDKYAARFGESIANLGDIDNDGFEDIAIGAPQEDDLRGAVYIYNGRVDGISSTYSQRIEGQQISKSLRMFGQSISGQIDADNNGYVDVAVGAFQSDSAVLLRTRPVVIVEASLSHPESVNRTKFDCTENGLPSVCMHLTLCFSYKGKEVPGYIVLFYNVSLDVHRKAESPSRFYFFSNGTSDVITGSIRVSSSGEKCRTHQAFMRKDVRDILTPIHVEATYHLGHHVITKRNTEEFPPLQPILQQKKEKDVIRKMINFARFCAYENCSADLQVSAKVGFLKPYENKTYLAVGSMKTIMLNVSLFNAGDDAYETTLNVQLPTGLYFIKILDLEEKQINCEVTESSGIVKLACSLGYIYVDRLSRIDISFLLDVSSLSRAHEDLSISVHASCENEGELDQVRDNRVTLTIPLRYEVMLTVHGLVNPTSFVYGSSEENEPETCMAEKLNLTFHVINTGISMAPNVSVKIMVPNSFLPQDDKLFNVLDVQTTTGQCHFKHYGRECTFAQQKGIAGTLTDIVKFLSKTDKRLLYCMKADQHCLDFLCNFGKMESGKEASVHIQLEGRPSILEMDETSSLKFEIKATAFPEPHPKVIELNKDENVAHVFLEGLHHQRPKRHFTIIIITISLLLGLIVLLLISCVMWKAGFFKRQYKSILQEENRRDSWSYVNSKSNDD
T1 sequence (P09055 21-798): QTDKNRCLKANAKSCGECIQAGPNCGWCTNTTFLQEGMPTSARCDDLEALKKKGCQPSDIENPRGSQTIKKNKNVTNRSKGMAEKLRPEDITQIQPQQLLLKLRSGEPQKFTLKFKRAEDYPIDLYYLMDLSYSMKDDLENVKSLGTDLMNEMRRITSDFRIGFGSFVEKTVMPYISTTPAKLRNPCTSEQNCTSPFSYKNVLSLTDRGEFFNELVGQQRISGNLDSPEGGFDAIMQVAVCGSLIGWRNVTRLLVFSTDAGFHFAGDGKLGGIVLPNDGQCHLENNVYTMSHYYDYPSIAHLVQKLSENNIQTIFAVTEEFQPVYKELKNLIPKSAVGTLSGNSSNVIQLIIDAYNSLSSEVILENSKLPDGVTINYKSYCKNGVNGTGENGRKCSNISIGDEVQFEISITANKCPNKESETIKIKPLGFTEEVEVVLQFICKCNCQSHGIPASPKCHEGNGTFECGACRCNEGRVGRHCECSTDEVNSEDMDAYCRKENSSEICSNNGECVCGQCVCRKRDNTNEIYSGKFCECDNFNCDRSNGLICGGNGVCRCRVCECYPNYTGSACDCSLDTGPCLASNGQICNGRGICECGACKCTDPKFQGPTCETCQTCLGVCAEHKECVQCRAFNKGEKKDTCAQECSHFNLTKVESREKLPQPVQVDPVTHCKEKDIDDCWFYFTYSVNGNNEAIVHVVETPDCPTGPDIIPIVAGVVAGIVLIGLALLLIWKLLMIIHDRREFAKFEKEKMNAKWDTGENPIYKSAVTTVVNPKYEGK
Method: Saturation binding assay. In vitro binding saturation assays were performed on B16-F10 cells following published procedures (n=3).(28) Cells were grown to near-confluence on 24 well poly-D-lysine plates. Growth media was removed, and reaction media (RPMI, 1% BSA, 100 U/mL penicillin/streptomycin) was added and allowed to incubate for at least 1 h at 37° C. Increasing concentrations (5 pM to 20 nM) of [^18F]6 were added to the cells and incubated for 1 h at 25° C. with mild agitation. Non-specific binding was determined by repeating the described incubations with [^18F]6 while simultaneously adding 1 (10 μM). After incubation, cells were washed twice with ice-cold PBS, harvested following incubation with trypsin, and measured for radioactivity using a WIZARD 2480 gamma counter (PerkinElmer). Values from the non-specific binding assays were subtracted from the respective values of the specific binding assays. Dissociation constants (Kd'S) were determined using GraphPad PRISM 7 with a one-site specific binding model.

[3] = system: B16-F10 tumor-bearing mice; format: in vivo, mice (male C57BL/6J); parameters: Reduction of accumulation in the spleen by co-injection of 1 / Reduction of accumulation in the intestines by co-injection of 1 / Reduction of accumulation in the lungs by co-injection of 1 / Reduction of accumulation in bone & marrow by co-injection of 1 / Reduction of accumulation in the tumor by co-injection of 1: concentration or dose not given beside the values
Method: All animal experiments were conducted according to the guidelines established by Canadian Council on Animal Care and approved by Animal Ethics Committee of the University of British Columbia. Mice were housed under pathogen-free conditions and kept on twelve-hour light and dark cycles in the Animal Resource Centre of BC Cancer Research Centre, Vancouver, Canada. PET imaging and biodistribution studies were performed using male C57BL/6J mice. For tumor implantation, mice were anesthetized by inhalation with 2% isoflurane in 2.0 L/min of oxygen, and 1×10^6 B16F10 cells were implanted subcutaneously on the right back at the level of the forelimbs. Mice were imaged or used in biodistribution studies once the tumor grew to reach 8-10 mm in diameter in 8-10 days. Mice for biodistribution study only were anesthetized by 2% isoflurane inhalation, and injected with 1-2 MBq of F-18 labeled […]3-DOTA. For blocking studies, 100 μg of non-radioactive […]3-DOTA was co-injected with the radioactive compound. After injection, the mice were allowed to recover and roam freely in their cages, and euthanized by CO2 inhalation 1 h later. Blood was promptly withdrawn, and the organs of interest were harvested, rinsed with 1×PBS (pH 7.4), and blotted dry. Each organ was weighed and the radioactivity of the collected tissue was measured using a WIZARD 2480 (PerkinElmer), normalized to the injected dose using a standard curve and expressed as the percentage of the injected dose per gram of tissue (% ID/g). Biodistribution of DOTA-[^18[…]]6) in B16-F10 tumor-bearing mice. Mice were anesthetized using 2% isoflurane and injected with 2-3 MBq of [^18F]6 via the tail vein. For competitive VLA-4 blocking studies, 200 μg of 1 was co-injected with 2-3 MBq of [^18F]6. At 1 h p.i., mice were euthanized by CO2 (g) inhalation, blood was collected, and the organs were excised. After rinsing and drying the samples, organs were weighed, their radioactivity was recorded using a Wallac WIZARD2 gamma counter (PerkinElmer), and values were expressed as % ID/g for each organ. Two-tailed ANOVA Sidak's multiple comparison tests (GraphPad PRISM) were used to evaluate statistical significance between the biodistribution of [^18F]6 alone compared with competitive blocking of VLA-4 by co-injections of 1.

[4] = system: B16-F10 tumor-bearing mice; parameters: species or system mice (male C57BL/6J); details: mouse, in vivo
Method: PET/CT imaging studies were carried out on a microPET/CT scanner (Inveon, Siemens). Briefly, for static PET scans, each tumor bearing mouse was injected with 4-6 MBq of F-18 labeled […]3-DOTA via the caudal lateral tail vein under isoflurane sedation. For blocking study, mice were co-injected with 100 μg of non-radioactive […]3-DOTA. After injection, the mice were allowed to recover and roam freely in their cages. After 50 min, the mice were sedated again and positioned in the scanner. A baseline CT scan was obtained for localization and attenuation correction. This was followed by a 10 min static PET scan. The mice were kept warm by a heating pad during acquisition. The mice were euthanized using CO2 inhalation after static PET imaging followed by biodistribution. The PET images were reconstructed using the ordered subset expectation maximization and maximum a posteriori algorithm (OSEM3D/MAP), using 2 OSEM3D iterations followed by 18 MAP iterations, with a requested resolution of 1.5 mm. […] For static PET scans (recorded for 10 min), mice were first injected with 4-6 MBq of ([^18F]6) via the tail vein while anesthetized with 2% isoflurane and were subjected to baseline CT scans (recorded for 10 min) prior to PET imaging. […] Dynamic PET scans involved the described anesthesia, injection of 4-6 MBq of [^18F]6, baseline CT scans, and PET scans recorded from 5 sec. to 52.5 min p.i. […]

[5] = system: mice bearing PSMA-expressing LNCaP prostate cancer xenografts; parameters: species or system mice (NODSCID 1L2RγKO male); details: mouse, in vivo
Method: Imaging and biodistribution experiments were performed using NODSCID 1L2RγKO male mice. The mice were maintained and the experiments were conducted in according to the guidelines established by Canadian Council on Animal Care and approved by Animal Ethics Committee of the University of British Columbia. Mice were anesthetized by inhalation with 2% isoflurane in oxygen, and implanted subcutaneously with 1×10^7 LNCaP cells behind left shoulder. Mice were imaged or used in biodistribution studies when the tumor grew up to reach 5-8 mm in diameter during 5-6 weeks. For biodistribution studies, the mice were injected with the radiotracer as described above. For blocking, the mice were co-injected with non-radioactive DCFPyL (0.5 mg). After 1 hour, the mice were anesthetized with 2% isoflurane inhalation, and euthanized by CO2 inhalation. Blood was withdrawn immediately from the heart, and the organs/tissues of interest were collected. The collected organs/tissues were weighed and counted using an automatic gamma counter. The uptake in each organ/tissue was normalized to the injected dose using a standard curve, and expressed as % ID/g.

## C#CC[N+](C)(C)C[B-](F)(F)F [compound 7, N-propargyl-N,N-dimethyl-ammoniomethyl-trifluoroborate]
[1]
  Loss of free fluoride (hydrolytic stability): very slow, first order rate

## DOTA-AMBF3-PEG2-LLP2A [compound 6]
[2]; comparison with earlier conjugates
  Kd relative to Kd values of other [^18F]RBF3-PEG2-LLP2A conjugates (fold higher): at least 5 fold
[2]; saturation binding of [^18F]6, B16-F10 cells, 1 h at 25° C., n=3
  Kd: 6.9 ± 0.59 nM

## DOTA-[^18F]AMBF3-PEG2-LLP2A [[^18F]6]
[3]; 1 h p.i., p<0.0001
  Lowering of tumor-to-blood contrast by VLA-4 blocking: 85%
  Lowering of tumor-to-muscle contrast by VLA-4 blocking: 92%
  Reduction of accumulation in bone & marrow by co-injection of 1: 78%
  Reduction of accumulation in the lungs by co-injection of 1: 85%
  Reduction of accumulation in the spleen by co-injection of 1: 88%
  Reduction of accumulation in the tumor by co-injection of 1: 75%
[3]; 1 h p.i., p<0.05
  Reduction of accumulation in the intestines by co-injection of 1: 43%
[3]; mouse, in vivo
  Reduction of accumulation in the intestines compared to previously investigated [^18F]RBF3-PEG2-LLP2A's: ~10 fold
  Tumor-to-tissue ratio Tumor: Bone & Marrow: 1.98 ± 0.78
  Tumor-to-tissue ratio Tumor: Kidney: 2.22 ± 0.60
[4]
  Time of initial perfusion and first pass through the liver (dynamic PET): ≤ 4 min p.i.
  Time to uptake in the tumor (dynamic PET): ≤ 1.9 min p.i.

## ^18F-PSMA-617-LysAMBF3-DOTA [F-18 labeled PSMA-617-Lys-AMBF3-DOTA]
[5]
  Tumor/Blood baseline: 14.19 ± 3.85
  Tumor/Kidney baseline: 0.09 ± 0.03
  Tumor/Muscle baseline: 41.55 ± 10.83
